Assay in all cases: relative viability (nuclei count vs DMSO), 5 days (fraction); higher = more cells survive
Compound in test [1]: CNC(=O)c1ccccc1Sc1ccc2c(/C=C/c3ccccn3)n[nH]c2c1 [Axitinib] + COc1cc2c(Oc3ccc(NC(=O)C4(C(=O)Nc5ccc(F)cc5)CC4)cc3F)ccnc2cc1OCCCN1CCOCC1 [Foretinib] (partner 0.25 µM)
The essentials:
(§1)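 The day after seeding in 1536-well plates, lung cancer cell lines were treated by pin tool with a single drug, or with a fixed anchor-drug dose together with five library-drug doses (not always all listed) in √10 steps. After 5 days, a combined fix-and-stain solution (final 0.05% Triton X-100, 1% formaldehyde, 1 ug/ml Hoechst) was added. Nuclei counted on 4× images gave relative viability as treated counts over vehicle counts, reported as the median of duplicate plates.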

Compound in test [2]: CNC(=O)c1ccccc1Sc1ccc2c(/C=C/c3ccccn3)n[nH]c2c1 [Axitinib] + CC(C)C[C@H](NC(=O)[C@H](Cc1ccccc1)NC(=O)c1cnccn1)B(O)O [Bortezomib] (partner 0.002 µM)
The essentials:
as §1

Compound in test [3]: CNC(=O)c1ccccc1Sc1ccc2c(/C=C/c3ccccn3)n[nH]c2c1 [Axitinib] + CS(=O)(=O)CCNCc1ccc(-c2ccc3ncnc(Nc4ccc(OCc5cccc(F)c5)c(Cl)c4)c3c2)o1 [Lapatinib] (partner 2 µM)
In outline: as §1

Compound in test [4]: CC1=CC=C(C=C1)C(=O)CN2C3=C(CCCC3)SC2=N [Pifithrin_alpha] + CC(=O)c1c(C)c2cnc(Nc3ccc(N4CCNCC4)cn3)nc2n(C2CCCC2)c1=O [Palbociclib] (partner 0.5 µM)
In outline:
as §1

In the case of IA-LM, the relative viability worked out at 1.27 in test [1] (first compound 0.005 µM); 1.14 in test [1] (first compound 0.01581 µM); 1.13 in test [1] (first compound 0.05 µM); 1.09 in test [1] (first compound 0.1581 µM); 1.35 in test [1] (first compound 0.5 µM); 1.17 in test [2] (first compound 0.005 µM). In addition, the relative viability in test [2] (first compound 0.01581 µM) worked out at 0.775; in test [2] (first compound 0.05 µM) it was 0.899; in test [2] (first compound 0.1581 µM) it was 0.846; in test [2] (first compound 0.5 µM) it was 0.728; in test [3] (first compound 0.005 µM) it was 0.83; in test [3] (first compound 0.01581 µM), 0.884. For the same cell line, the results for the relative viability in test [3] (first compound 0.05 µM), in test [3] (first compound 0.1581 µM) and in test [3] (first compound 0.5 µM) were 0.781, 0.747 and 0.788, respectively.
Consider LCLC-103H, for which the relative viability came to 0.747 in test [1] (first compound 0.005 µM); 0.867 in test [1] (first compound 0.01581 µM); 0.787 in test [1] (first compound 0.05 µM); 0.764 in test [1] (first compound 0.1581 µM); 0.85 in test [1] (first compound 0.5 µM); 1.07 in test [2] (first compound 0.005 µM). Also, the relative viability worked out at 1.07 in test [2] (first compound 0.01581 µM); 1.18 in test [2] (first compound 0.05 µM); 1.03 in test [2] (first compound 0.1581 µM); 1.07 in test [2] (first compound 0.5 µM); 0.525 in test [4] (first compound 1 µM); 0.518 in test [4] (first compound 3.162 µM). Moreover, the relative viability in test [4] (first compound 10 µM) is 0.472; in test [4] (first compound 31.62 µM), 0.464; in test [4] (first compound 100 µM), 0.456.
As to LK-2, the relative viability amounted to 1.31 in test [1] (first compound 0.005 µM); 1.03 in test [1] (first compound 0.01581 µM); 1.06 in test [1] (first compound 0.05 µM); 1.1 in test [1] (first compound 0.1581 µM); 1.42 in test [1] (first compound 0.5 µM); 0.916 in test [3] (first compound 0.005 µM). Also, the relative viability came to 0.776 in test [3] (first compound 0.05 µM); 0.745 in test [3] (first compound 0.1581 µM); 0.625 in test [3] (first compound 0.5 µM); 0.686 in test [4] (first compound 1 µM); 0.644 in test [4] (first compound 3.162 µM); 0.687 in test [4] (first compound 10 µM). The relative viability in test [4] (first compound 100 µM) came to 0.782.
On to NCI-H358, for which the relative viability is 0.701 in test [1] (first compound 0.005 µM); 0.738 in test [1] (first compound 0.01581 µM); 0.859 in test [1] (first compound 0.05 µM); 0.695 in test [1] (first compound 0.1581 µM); 0.925 in test [1] (first compound 0.5 µM); 0.46 in test [3] (first compound 0.005 µM). Further, the relative viability is 0.401 in test [3] (first compound 0.01581 µM); 0.437 in test [3] (first compound 0.05 µM); 0.374 in test [3] (first compound 0.1581 µM); 0.469 in test [3] (first compound 0.5 µM); 0.134 in test [4] (first compound 1 µM); 0.151 in test [4] (first compound 3.162 µM). Further, the results for the relative viability in test [4] (first compound 10 µM), in test [4] (first compound 31.62 µM) and in test [4] (first compound 100 µM) were 0.137, 0.115 and 0.119, respectively.
In the case of NCI-H441, the relative viability was 0.989 in test [1] (first compound 0.005 µM); 0.93 in test [1] (first compound 0.01581 µM); 0.872 in test [1] (first compound 0.05 µM); 1.13 in test [1] (first compound 0.1581 µM); 0.95 in test [1] (first compound 0.5 µM); 0.626 in test [2] (first compound 0.005 µM). Moreover, the relative viability in test [2] (first compound 0.01581 µM) worked out at 0.54; in test [2] (first compound 0.05 µM) it was 0.444; in test [2] (first compound 0.1581 µM), 0.465; in test [2] (first compound 0.5 µM), 0.443; in test [4] (first compound 1 µM), 0.203; in test [4] (first compound 3.162 µM) it was 0.249. Moreover, the relative viability turned out to be 0.217 in test [4] (first compound 10 µM) and 0.19 in test [4] (first compound 100 µM).
NCI-H522: the relative viability in test [4] (first compound 1 µM) came to 0.988; in test [4] (first compound 3.162 µM), 0.854; in test [4] (first compound 10 µM), 0.834; in test [4] (first compound 31.62 µM) it was 0.893; in test [4] (first compound 100 µM), 0.947.
In the case of NCI-H596, the relative viability in test [1] (first compound 0.005 µM) is 0.504; in test [1] (first compound 0.01581 µM), 0.861; in test [1] (first compound 0.05 µM), 0.803; in test [1] (first compound 0.1581 µM) it was 0.873; in test [1] (first compound 0.5 µM), 0.818; in test [2] (first compound 0.005 µM) it was 0.859. In addition, the relative viability in test [2] (first compound 0.01581 µM) was 0.887; in test [2] (first compound 0.05 µM), 1.08; in test [2] (first compound 0.1581 µM), 1.11; in test [2] (first compound 0.5 µM), 0.995; in test [3] (first compound 0.005 µM) it was 1.11; in test [3] (first compound 0.01581 µM), 0.935. For the same cell line, the relative viability stood at 1.03 in test [3] (first compound 0.05 µM), 0.887 in test [3] (first compound 0.1581 µM) and 1.14 in test [3] (first compound 0.5 µM).
For the cell line NCI-H1299, the relative viability in test [1] (first compound 0.005 µM) worked out at 1.06; in test [1] (first compound 0.01581 µM) it was 1.04; in test [1] (first compound 0.05 µM) it was 1.08; in test [1] (first compound 0.1581 µM) it was 1.08; in test [1] (first compound 0.5 µM), 1.24; in test [2] (first compound 0.005 µM), 1.05. Also, the relative viability in test [2] (first compound 0.01581 µM) is 0.989; in test [2] (first compound 0.05 µM) it was 1.07; in test [2] (first compound 0.1581 µM) it was 0.976; in test [2] (first compound 0.5 µM), 1.06; in test [3] (first compound 0.005 µM), 0.956; in test [3] (first compound 0.01581 µM) it was 0.993. Besides, the relative viability in test [3] (first compound 0.05 µM) is 0.96; in test [3] (first compound 0.1581 µM), 0.97; in test [3] (first compound 0.5 µM), 1.02.
In the case of NCI-H1395, the relative viability in test [1] (first compound 0.005 µM) is 0.97; in test [1] (first compound 0.01581 µM), 1.03; in test [1] (first compound 0.05 µM), 0.982; in test [1] (first compound 0.1581 µM), 0.939; in test [1] (first compound 0.5 µM) it was 0.918; in test [3] (first compound 0.005 µM) it was 1.31. The relative viability in test [3] (first compound 0.01581 µM) stood at 0.887; in test [3] (first compound 0.05 µM), 1.12; in test [3] (first compound 0.1581 µM) it was 0.792; in test [3] (first compound 0.5 µM), 0.922; in test [4] (first compound 3.162 µM), 0.617; in test [4] (first compound 10 µM), 0.62. For the same cell line, in test [4] (first compound 100 µM), the relative viability turned out to be 0.603.

The values above are taken from the supplement of paper PMC10307832.
